Measured values published in patent US20230118114A1, “BIOERODIBLE LIFE SUPPORT HYDROGELS FOR THE DELIVERY OF VIABLE MITOCHONDRIA” (University of Kentucky Research Foundation, priority 2021, published 2023).
Entries after “also recorded” stand apart in the source; their conditions may differ.

Columns and labels:
[1] = test system: mitochondria isolated from spinal cord injury site; assay: Mitochondrial respiration (OCR) of spinal cord mitochondria after contusion SCI; type: in vivo, rats; settings: 24 hours after SCI; MitoTxp 100 µg intraspinal within 3 hr; ALC 300 mg/kg i.p. at 3 hours plus booster 6 hours later
Protocol: Bars are Mean ± SD, n=5-6/group. *p<0.05 compared with sham; # p<0.05 versus vehicle.
Briefly, rats were contused at L1/L2 spinal level with 250 kDyn force using Infinite Horizon Impactor; Sham group received only T12 laminectomy. Designated injured rats were injected either intraspinally with healthy mitochondria (100 µg, MitoTxp) isolated from syngeneic rat soleus muscle within 3 hr and/or injected with ALC (300 mg/kg, i.p.) at 3 hours followed by a booster 6 hours later. Then, after 24 hours, mitochondria were isolated from spinal cord injury site and assessed for respiration (OCR).

[2] = test system: spinal cord injury (SCI); settings: cited from earlier work
[3] = test system: mitochondria isolated from spinal cord injury site; settings: once daily ALC administered acutely after contusion SCI; cited from earlier work

Molecule	States III & V.1 OCR [1]	long term hind limb locomotor function and tissue sparing ([2]; continued daily ALC for three weeks after contusion SCI)	hind limb function ([2]; injured rats, 3 weeks of daily ALC treatment, vs vehicle)	tissue sparing ([2]; injured rats, 3 weeks of daily ALC treatment)	mitochondrial respiration [3]	long-term functional recovery and tissue sparing ([2]; continuous NACA 150 and 300 mg/kg/day up to 7 days post-injury)
CC(=O)O[C@H](CC(=O)[O-])C[N+](C)(C)C [ALC, acetyl-L-carnitine]	insignificant trends	significantly improves long term hind limb locomotor function and tissue sparing	able to step consistently with weight support on their hind limbs	increased gray and white matter tissue sparing	maintains mitochondrial respiration	
N-acetylcysteine amide [NACA]						significant tissue sparing and improved recovery of hindlimb function; also recorded: significantly increased long-term functional recovery and tissue sparing
